Data: US20240368209A1, “GEMCITABINE ANTICANCER DERIVATIVE AND ANTICANCER PHARMACEUTICAL USE” (ASCENTAWITS PHARMACEUTICALS, LTD., priority 2021, published 2024)
pIC50: −log10 of the molar value. Read-outs that look alike come from different tables or passages of the source. Each block holds one molecule with its values, some of them ahead of it.

What was measured:
[1] = tested on: H460 non-small cell lung cancer human tumor cell line; experiment: In vitro human tumor cell line cytotoxicity (proliferation) assay on H460, CTG, with or without AST-3021; format: cell-based; details: for pIC50: Homo sapiens
Method: In vitro human tumor cell line cytotoxicity assay was used.
In vitro proliferation data on the H460 non-small cell lung cancer human tumor cell line (cell line which highly expresses AKR1C3) is reported below in the compound table.
IC50 values were obtained with the following steps:
Specifically, exponentially growing cells were seeded at a density of 2×10^3 cells/100 μL/well in a 96-well plate and incubated at 37° C. in 5% CO2, 95% air and 100% relative humidity for 24 hours. The test compound was administered alone: 24 hours after cell plating, the compound acted alone, 99 μL of growth medium per well was added, and 1 μL of the compound prepared at 200× was added, and the plate was shaken gently to ensure even mixing, then placed into an incubator of 37° C., 5% CO2. After further cultivation for 72 hours, the number of live cells was detected using CTG. The CTG detection method was as follows: the cell plate to be tested was placed at room temperature to equilibrate for 30 minutes, and 100 μL of medium per well was discarded. 25 μL of CTG reagent (CellTiter-Glo® kit) per well was added, and the plate was placed in a high-speed shaker to oscillate for 2 minutes, and placed at room temperature in the dark for 30 minutes. The chemiluminescence signal value was read using a multimode microplate reader, with a read time of 1000 ms.
Similarly, in order to further verify that the compounds were activated by human AKR1C3 (aldosterone reductase family 1 member C3), the effect of some of the compounds on the proliferation of H460 cancer cells was tested with pretreatment with a specific AKR1C3 enzyme inhibitor AST-3021 (3 μM). The detailed experimental procedure was as follows: 24 hours after cell plating, 98 μL of growth medium per well was added, and 1 μL of 200×compound AST-3021 was added to each well, and the plate was shaken gently to ensure even mixing, and then placed into an incubator; after 2 hours, 1 μL of the test compound prepared at 200× was added, and the plate was shaken gently to ensure even mixing and then laced into an incubator of 37° C., 5% CO2. The inhibitor used was compound 36, i.e.
in Flanagan et al., Bioorganic and Medicinal Chemistry (2014), page 962-977, and is referred to as AST-3021 in this invention. The values measured in this case are values corresponding to +AST-3021 IC50 (nM) in Table 1.
The value corresponding to +AST-3021 IC50 (nM) divided by the value corresponding to IC50 (nM) is the specific activation ratio. The relative magnitude of the specific activation ratio can be used to evaluate whether this compound is a cytotoxic compound activated by human AKR1C3 (aldosterone reductase family 1 member C3): when the specific activation ratio is less than 1, it is considered that the compound is not activated by human AKR1C3 (aldosterone reductase family 1 member C3); when the specific activation ratio is greater than 1, it is considered that the compound is activated by human AKR1C3 (aldosterone reductase family 1 member C3), and the higher the value, the higher the activation degree and the selectivity of AKR1C3.

[2] = Plasma stability in human plasma; format: in vitro ADME
Method: (§1) The final concentration of organic solvents was 0.5%. The test was conducted in duplicate. • C.
(§2) Samples were analyzed with LC-MS/MS. All calculations were conducted using Microsoft Excel.

[3] = Plasma stability in monkey plasma; format: in vitro ADME
Method: as §1, §2

[4] = Plasma stability in dog plasma; format: in vitro ADME
Method: as §1, §2

[5] = Plasma stability in mouse plasma; format: in vitro ADME
Method: as §1, §2

[6] = NCI-H460, compound alone, 72 hours, read-out: IC50
[7] = NCI-H460, pretreatment with AKR1C3 inhibitor AST-3021 (3 μM), read-out: +AST-3021 IC50

Structure (SMILES): CCNP(=O)(OCc1ccc([N+](=O)[O-])c(Oc2cccc(C(=O)N3CCCCC3)c2)c1)OCC1OC(n2ccc(N)nc2=O)C(F)(F)C1O (stereo not drawn) [Compound H15]
- specific activation ratio (+AST-3021 IC50/IC50) [1]: 5.0
- pIC50 [1, 6]: 6.31
- pIC50 [1, 7]: 5.62

Structure (SMILES): CCNP(=O)(OCc1ccc([N+](=O)[O-])c(Oc2cccc(C(=O)N3CCC(C(F)(F)F)CC3)c2)c1)OCC1OC(n2ccc(N)nc2=O)C(F)(F)C1O (stereo not drawn) [Compound H16]
- specific activation ratio (+AST-3021 IC50/IC50) [1]: 8.9
- pIC50 [1, 6]: 6.42
- pIC50 [1, 7]: 5.47

Structure (SMILES): Nc1ccn(C2OC(COP(=O)(NC3CCCCC3)OCc3ccc([N+](=O)[O-])c(Oc4ccc(-c5ccc(F)cc5)c(F)c4)c3)C(O)C2(F)F)c(=O)n1 (stereo not drawn) [Compound H17]
- specific activation ratio (+AST-3021 IC50/IC50) [1]: 27.2
- pIC50 [1, 6]: 6.40
- pIC50 [1, 7]: 4.97

Structure (SMILES): Nc1ccn(C2OC(COP(=O)(NC3CCCCC3)OCc3ccc([N+](=O)[O-])c(Oc4ccc(C(F)(F)F)cc4)c3)C(O)C2(F)F)c(=O)n1 (stereo not drawn) [Compound H18]
- specific activation ratio (+AST-3021 IC50/IC50) [1]: 3.7
- pIC50 [1, 6]: 6.34
- pIC50 [1, 7]: 5.77

Structure (SMILES): CCNP(=O)(OCc1ccc([N+](=O)[O-])c(Oc2ccc3ncccc3c2)c1)OCC1OC(n2ccc(N)nc2=O)C(F)(F)C1O (stereo not drawn) [Compound H19]
- specific activation ratio (+AST-3021 IC50/IC50) [1]: 3.4
- pIC50 [1, 6]: 6.82
- pIC50 [1, 7]: 6.29

Structure (SMILES): CCNP(=O)(OCc1ccc([N+](=O)[O-])c(Oc2ccc3nc(C)sc3c2)c1)OCC1OC(n2ccc(N)nc2=O)C(F)(F)C1O (stereo not drawn) [Compound H20]
- specific activation ratio (+AST-3021 IC50/IC50) [1]: 6.2
- pIC50 [1, 6]: 6.64
- pIC50 [1, 7]: 5.84

Structure (SMILES): CCNP(=O)(OCC1OC(n2ccc(N)nc2=O)C(F)(F)C1O)OC(C)c1ccc([N+](=O)[O-])c(Oc2ccc(-c3ccc(F)cc3)c(F)c2)c1 (stereo not drawn) [Compound H21]
- specific activation ratio (+AST-3021 IC50/IC50) [1]: 34.8
- pIC50 [1, 6]: 6.90
- pIC50 [1, 7]: 5.36

Structure (SMILES): CC(OP(=O)(NCCBr)OCC1OC(n2ccc(N)nc2=O)C(F)(F)C1O)c1ccc([N+](=O)[O-])c(Oc2ccc(-c3ccc(F)cc3)c(F)c2)c1 (stereo not drawn) [Compound H22]
- specific activation ratio (+AST-3021 IC50/IC50) [1]: 19.2
- pIC50 [1, 6]: 6.91
- pIC50 [1, 7]: 5.62

Structure (SMILES): CNP(=O)(OCC1OC(n2ccc(N)nc2=O)C(F)(F)C1O)OC(C)c1ccc([N+](=O)[O-])c(Oc2ccc(C(F)(F)F)cc2)c1 (stereo not drawn) [Compound H23]
- specific activation ratio (+AST-3021 IC50/IC50) [1]: 29.8
- pIC50 [1, 6]: 6.42
- pIC50 [1, 7]: 4.95

Structure (SMILES): CCNP(=O)(OCC1OC(n2ccc(N)nc2=O)C(F)(F)C1O)OC(C)c1ccc([N+](=O)[O-])c(Oc2ccc(C(=O)N3CCCCC3)cc2)c1 (stereo not drawn) [Compound H24]
- specific activation ratio (+AST-3021 IC50/IC50) [1]: 19.1
- pIC50 [1, 6]: 5.95
- pIC50 [1, 7]: 4.67

Structure (SMILES): CCNP(=O)(OCC1OC(n2ccc(N)nc2=O)C(F)(F)C1O)OC(C)c1ccc([N+](=O)[O-])c(Oc2cccc(C(=O)N3CCCCC3)c2)c1 (stereo not drawn) [Compound H25]
- specific activation ratio (+AST-3021 IC50/IC50) [1]: 9.6
- pIC50 [1, 6]: 6.29
- pIC50 [1, 7]: 5.31

Structure (SMILES): CCNP(=O)(OCc1ccc([N+](=O)[O-])c(Oc2ccc(-c3ccc(F)cn3)cc2)c1)OCC1OC(n2ccc(N)nc2=O)C(F)(F)C1O (stereo not drawn) [Compound H28]
- specific activation ratio (+AST-3021 IC50/IC50) [1]: 20.4
- pIC50 [1, 6]: 6.63
- pIC50 [1, 7]: 5.32

Structure (SMILES): Nc1ccn(C2OC(COP(=O)(NC3CCCC3)OCc3ccc([N+](=O)[O-])c(Oc4ccc(-c5ccc(F)cc5)c(F)c4)c3)C(O)C2(F)F)c(=O)n1 (stereo not drawn) [Compound H29]
- specific activation ratio (+AST-3021 IC50/IC50) [1]: 47.17
- pIC50 [1, 6]: 7.08
- pIC50 [1, 7]: 5.41

Structure (SMILES): CC(C)NP(=O)(OCc1ccc([N+](=O)[O-])c(Oc2cccc(C(=O)N3CCCCC3)c2)c1)OCC1OC(n2ccc(N)nc2=O)C(F)(F)C1O (stereo not drawn) [Compound H35]
- specific activation ratio (+AST-3021 IC50/IC50) [1]: 8.6
- pIC50 [1, 6]: 6.34
- pIC50 [1, 7]: 5.41

Structure (SMILES): CC(C)NP(=O)(OCc1ccc([N+](=O)[O-])c(Oc2ccc(C(=O)N3CCCCC3)cc2)c1)OCC1OC(n2ccc(N)nc2=O)C(F)(F)C1O (stereo not drawn) [Compound H36]
- specific activation ratio (+AST-3021 IC50/IC50) [1]: 3.1
- pIC50 [1, 6]: 6.42
- pIC50 [1, 7]: 5.93

Structure (SMILES): CC(C)NP(=O)(OCc1ccc([N+](=O)[O-])c(Oc2ccc(-c3ccc(F)cc3)cc2)c1)OCC1OC(n2ccc(N)nc2=O)C(F)(F)C1O (stereo not drawn) [Compound H38]
- specific activation ratio (+AST-3021 IC50/IC50) [1]: 507.6
- pIC50 [1, 6]: 7.19
- pIC50 [1, 7]: 4.48

Structure (SMILES): CC(C)NP(=O)(OCc1ccc([N+](=O)[O-])c(Oc2ccc(-c3ccc(C(F)(F)F)cc3)cc2)c1)OCC1OC(n2ccc(N)nc2=O)C(F)(F)C1O (stereo not drawn) [Compound H39]
- specific activation ratio (+AST-3021 IC50/IC50) [1]: 12.7
- pIC50 [1, 6]: 5.66
- pIC50 [1, 7]: 4.56

Structure (SMILES): CC(C)NP(=O)(OCc1ccc([N+](=O)[O-])c(Oc2ccc(-c3ccc(Cl)cc3)cc2)c1)OCC1OC(n2ccc(N)nc2=O)C(F)(F)C1O (stereo not drawn) [Compound H40]
- specific activation ratio (+AST-3021 IC50/IC50) [1]: 86.9
- pIC50 [1, 6]: 6.71
- pIC50 [1, 7]: 4.77

Structure (SMILES): CC(C)NP(=O)(OCc1ccc([N+](=O)[O-])c(Oc2ccc(-c3ccc(Cl)cc3)c(F)c2)c1)OCC1OC(n2ccc(N)nc2=O)C(F)(F)C1O (stereo not drawn) [Compound H42]
- specific activation ratio (+AST-3021 IC50/IC50) [1]: 333.5
- pIC50 [1, 6]: 7.24
- pIC50 [1, 7]: 4.72

Structure (SMILES): CC(C)NP(=O)(OCc1ccc([N+](=O)[O-])c(Oc2ccc(-c3ccccc3F)cc2)c1)OCC1OC(n2ccc(N)nc2=O)C(F)(F)C1O (stereo not drawn) [Compound H43]
- specific activation ratio (+AST-3021 IC50/IC50) [1]: 257.8
- pIC50 [1, 6]: 7.22
- pIC50 [1, 7]: 4.81

Structure (SMILES): CC(C)NP(=O)(OCc1ccc([N+](=O)[O-])c(Oc2ccc(-c3cccc(F)c3)cc2)c1)OCC1OC(n2ccc(N)nc2=O)C(F)(F)C1O (stereo not drawn) [Compound H44]
- specific activation ratio (+AST-3021 IC50/IC50) [1]: 336.1
- pIC50 [1, 6]: 7.29
- pIC50 [1, 7]: 4.76

- Remaining percentage (%) ([2]; 0 min, 5 μM, 37° C.): 100.00%
- Remaining percentage (%) ([2]; 15 min): 81.24%
- Remaining percentage (%) ([2]; 30 min): 59.99%
- Remaining percentage (%) ([2]; 60 min): 32.76%
- Remaining percentage (%) ([2]; 120 min): 7.75%
- half-life at 5 µM ([2]; human): 0.611 h
- Remaining percentage (%) ([3]; 0 min, 5 μM, 37° C.): 100.00%
- Remaining percentage (%) ([3]; 15 min): 90.53%
- Remaining percentage (%) ([3]; 30 min): 77.57%
- Remaining percentage (%) ([3]; 60 min): 70.39%
- Remaining percentage (%) ([3]; 120 min): 49.22%
- half-life at 5 µM ([3]; monkey): 2.02 h
- Remaining percentage (%) ([4]; 0 min, 5 μM, 37° C.): 100.00%
- Remaining percentage (%) ([4]; 15 min): 101.04%
- Remaining percentage (%) ([4]; 30 min): 87.98%
- Remaining percentage (%) ([4]; 60 min): 85.64%
- Remaining percentage (%) ([4]; 120 min): 66.64%
- half-life at 5 µM ([4]; dog): 3.38 h
- half-life at 5 µM [5]: 0.364 h
- Remaining percentage (%) ([5]; 0 min, 5 μM, 37° C.): 100.00%
- Remaining percentage (%) ([5]; 15 min): 69.89%
- Remaining percentage (%) ([5]; 30 min): 43.11%
- Remaining percentage (%) ([5]; 60 min): 15.28%
- Remaining percentage (%) ([5]; 120 min): 2.03%
Structure (SMILES): CC(C)[N+](C)(CCOC(=O)C1c2ccccc2Oc2ccccc21)C(C)C [propantheline, reference compound]
